One experiment deals with HuapoAI transgenic mice. As to the kind of experiment: Evaluation of triglyceride and cholesterol level in HuapoAI transgenic mice. Format: in vivo. To be noted: Mus musculus, 168 h, human apoAI transgenic mice, 30 mg/kg oral gavage daily for 7 days; for change in vivo at 30 mg/kg: FPLC area under the curve, over mice receiving vehicle, read-out: % HDLc Increase; for inhibition in vivo at 30 mg/kg: serum 3 h after dosing, read-out: Reduction in Triglyceride Serum Level. As to the method: After an acclimation period of 2 weeks, animals were individually identified by ear notches, weighed, and assigned to groups based on body weight. Beginning the following morning, mice were dosed daily by oral gavage for 7 days using a 20 gauge, 1½″ curved disposable feeding needle (Popper & Sons). […] Prior to termination on day 7, mice were weighed and dosed. Three hours after dosing, animals were anesthetized by inhalation of isoflurane (2-4%; Abbott Laboratories, Chicago, Ill.) and blood obtained via cardiac puncture (0.7-1.0 ml). Whole blood was transferred to serum separator tubes (Vacutainer SST), chilled on ice, and permitted to clot. Serum was obtained after centrifugation at 4° C. and frozen until analysis for triglycerides, total cholesterol, compound levels, and serum lipoprotein profile by fast protein liquid chromatography (FPLC) coupled to an inline detection system. After sacrifice by cervical dislocation, the liver, heart and epididymal fat pads were excised and weighed.
The absorbance of the dye produced is linearly related to the analyte in the sample. The assays were further modified in our laboratory for use in a 96 well format. […] An additional aliquot of sample, pipetted to a third well and diluted in 200 μl water, provided a blank for each specimen. […] Sample absorbances were compared to a standard curve (100-800, 10-500, and 100-400 mg/dl for glucose, triglycerides and total cholesterol, respectively). […] All samples from an experiment were assayed at the same time to minimize inter-assay variability.
Serum lipoproteins were separated and cholesterol quantitated with an in-line detection system. Sample was applied to a Superose® 6 HR 10/30 size exclusion column (Amersham Pharmacia Biotech) and eluted with phosphate buffered saline-EDTA at 0.5 ml/min. […] The change in voltage corresponding to change in cholesterol concentration was plotted vs time and the area under the curve corresponding to the elution of VLDL, LDL and HDL was calculated using Perkin Elmer Turbochrome software.

The subject of a further experiment is huPPARα. As to the kind of experiment: Cotransfection assay in CV-1 cells, huPPARα. Format: cell-based, human. To be noted: GAL4 chimeric system, relative to PPARα agonist reference molecule. As to the method: DNA-dependent binding (ABCD binding) was carried out using SPA technology with PPAR receptors. Tritium-labeled PPARα and PPARγ agonists were used as radioligands for generating displacement curves and IC50 values with compounds of the invention. Cotransfection assays were carried out in CV-1 cells. The reporter plasmid contained an acylCoA oxidase (AOX) PPRE and TK promoter upstream of the luciferase reporter cDNA. Appropriate PPARs and RXRα were constitutively expressed using plasmids containing the CMV promoter. […] In order to eliminate such interference, a GAL4 chimeric system was used in which the DNA binding domain of the transfected PPAR was replaced by that of GAL4, and the GAL4 response element was utilized in place of the AOX PPRE. Cotransfection efficacy was determined relative to PPARα agonist and PPARγ agonist reference molecules. Efficacies were determined by computer fit to a concentration-response curve, or in some cases at a single high concentration of agonist (10 μM). For binding or cotransfection studies with receptors other than PPARs, similar assays were carried out using appropriate ligands, receptors, reporter constructs, etc., for that particular receptor.
These studies were carried out to evaluate the ability of compounds of the invention to bind to and/or activate various nuclear transcription factors, particularly huPPARα (“hu” indicates “human”) and huPPARγ. These studies provide in vitro data concerning efficacy and selectivity of compounds of the invention. Furthermore, binding and cotransfection data for compounds of the invention were compared with corresponding data for marketed compounds that act on either huPPARα or huPPARγ.

The structures appear in SMILES notation.

Turning to `Cc1oc(-c2cccc(Br)c2)nc1CCOc1ccc(CC(C)(Oc2ccccc2)C(=O)O)cc1` (stereo not shown) [Example 8, 3-(4-{2-[2-(3-Bromophenyl)-5-methyloxazol-4-yl]ethoxy}phenyl)-2-methyl-2-phenoxypropionic acid], in the experiment with HuapoAI transgenic mice, the change in vivo at 30 mg/kg was found to be 34%. Further, in the experiment with huPPARα, the “huPPARα CTF Efficacy” value came out at 54%.

Consider `Cc1oc(C2(C)CCCCC2)nc1CCOc1ccc(CC(C)(Oc2ccccc2)C(=O)O)cc1` (stereo not shown) [Example 9, 2-Methyl-3-(4-{2-[5-methyl-2-(1-methylcyclohexyl)oxazol-4-yl]ethoxy}phenyl)-2-phenoxypropionic acid], for which, in the experiment with HuapoAI transgenic mice, the change in vivo at 30 mg/kg worked out at 123% and the inhibition in vivo at 30 mg/kg was found to be 19.8%. The “huPPARα CTF Efficacy” value with huPPARα stood at 61%.

`Cc1oc(-c2cccs2)nc1CCOc1ccc(CC(C)(Oc2ccc(C(C)(C)C)cc2)C(=O)O)cc1` (stereo not shown) [Example 17, 2-Methyl-3-{4-[2-(5-methyl-2-thiophen-2-yl-oxazol-4-yl)-ethoxy]-phenyl}-2-(4-tert-butylphenoxy)-propionic acid]: in the experiment on HuapoAI transgenic mice, the change in vivo at 30 mg/kg was 119% and the inhibition in vivo at 30 mg/kg amounted to 78.7%. For the same molecule, in the experiment on huPPARα, the “huPPARα CTF Efficacy” value is listed as 129%.

On to `Cc1oc(C2CCCCC2)nc1CCOc1ccc(CC(C)(Oc2ccc(C(C)(C)C)cc2)C(=O)O)cc1` (stereo not shown) [Example 18, 2-Methyl-3-(4-{2-[5-methyl-2-cyclohexylyl-oxazol-4-yl]-ethoxy}-phenyl)-2-(4-tert-butylphenoxy)-propionic acid], for which, in the experiment with HuapoAI transgenic mice, the change in vivo at 30 mg/kg amounted to 141% and the inhibition in vivo at 30 mg/kg came out at 69%. The “huPPARα CTF Efficacy” value in the experiment on huPPARα came to 102%.

For the molecule `COc1ccc(OC(C)(Cc2ccc(OCCc3nc(-c4cccs4)oc3C)cc2)C(=O)O)cc1` (stereo not shown) [Example 19, 2-Methyl-3-{4-[2-(5-methyl-2-thiophen-2-yl-oxazol-4-yl)-ethoxy]-phenyl}-2-(4-methoxyphenoxy)-propionic acid], in the experiment with HuapoAI transgenic mice, the change in vivo at 30 mg/kg was found to be 89% and the inhibition in vivo at 30 mg/kg worked out at 40%. For the same molecule, the “huPPARα CTF Efficacy” value with huPPARα came out at 64%.

On to `Cc1oc(-c2cccs2)nc1CCOc1ccc(CC(C)(Oc2cccc(F)c2)C(=O)O)cc1` (stereo not shown) [Example 22, 2-(3-Fluoro-phenoxy)-2-methyl-3-{4-[2-(5-methyl-2-thiophen-2-yl-oxazol-4-yl)-ethoxy]-phenyl}-propionic acid], for which, in the experiment with HuapoAI transgenic mice, the change in vivo at 30 mg/kg amounted to 29% and the inhibition in vivo at 30 mg/kg was found to be 19.5%. The “huPPARα CTF Efficacy” value in the experiment with huPPARα turned out to be 51%.

With `Cc1oc(C2CCCCC2)nc1CCOc1ccc(CC(C)(Oc2cccc(F)c2)C(=O)O)cc1` (stereo not shown) [Example 23, 2-(3-Fluoro-phenoxy)-2-methyl-3-{4-[2-(5-methyl-2-cyclohexyl-oxazol-4-yl)-ethoxy]-phenyl}-propionic acid], in the experiment on HuapoAI transgenic mice, the change in vivo at 30 mg/kg was 54% and the inhibition in vivo at 30 mg/kg was 52.5%. Moreover, the “huPPARα CTF Efficacy” value in the experiment on huPPARα turned out to be 40%.

Consider `Cc1oc(-c2cccs2)nc1CCOc1ccc(CC(C)(Oc2cccc(C(C)(C)C)c2)C(=O)O)cc1` (stereo not shown) [Example 25, 2-(3-tert-Butyl-phenoxy)-2-methyl-3-{4-[2-(5-methyl-2-thiophen-2-yl-oxazol-4-yl)-ethoxy]-phenyl}-propionic acid], for which, in the experiment on HuapoAI transgenic mice, the change in vivo at 30 mg/kg came to 8% and the inhibition in vivo at 30 mg/kg is 35.5%. Besides, in the experiment with huPPARα, the “huPPARα CTF Efficacy” value is recorded as 95%.

For `Cc1oc(-c2cccs2)nc1CCOc1ccc(CC(C)(Oc2ccccc2F)C(=O)O)cc1` (stereo not shown) [Example 27, 2-(2-Fluoro-phenoxy)-2-methyl-3-{4-[2-(5-methyl-2-thiophen-2-yl-oxazol-4-yl)-ethoxy]-phenyl}-propionic acid], in the experiment on HuapoAI transgenic mice, the change in vivo at 30 mg/kg turned out to be 49% and the inhibition in vivo at 30 mg/kg is 36.8%. The “huPPARα CTF Efficacy” value in the experiment with huPPARα is reported as 46%.

For `Cc1oc(-c2ccccc2)nc1CCOc1ccc(CC(C)(Oc2ccc(Cl)cc2)C(=O)O)cc1` (stereo not shown) [Example 29, 2-(4-Chloro-phenoxy)-2-methyl-3-{4-[2-(5-methyl-2-phenyl-oxazol-4-yl)-ethoxy]-phenyl}-propionic acid], in the experiment on HuapoAI transgenic mice, the change in vivo at 30 mg/kg worked out at 78%. Besides, the “huPPARα CTF Efficacy” value in the experiment with huPPARα is on record as 65%.
